Target: T1, CapZβ (Homo sapiens, UniProt P47756)
T1 construct: gene CAPZB; recombinant CapZβ
Assay: isothermal titration calorimetry
Format: binding
Conditions: biotinylated vacuolin-1 analogue; labelled compound

T1 sequence (P47756 2-272): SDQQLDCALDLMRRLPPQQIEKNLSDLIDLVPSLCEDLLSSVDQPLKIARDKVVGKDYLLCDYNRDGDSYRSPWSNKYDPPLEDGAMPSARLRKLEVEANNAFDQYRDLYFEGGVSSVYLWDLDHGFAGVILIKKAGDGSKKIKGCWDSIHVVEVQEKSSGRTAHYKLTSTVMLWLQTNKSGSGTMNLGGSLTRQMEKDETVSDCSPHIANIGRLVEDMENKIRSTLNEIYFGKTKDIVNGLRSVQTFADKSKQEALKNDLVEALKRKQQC

biotin-V1
Kd: ~3.1 µM

From PMC7946642, “Vacuolin-1 inhibits endosomal trafficking and metastasis via CapZβ” (Oncogene, 2021)
